Molecules are shown by their SMILES. Values joined by “and” are separate entries in the source; they are usually repeats but may differ in a detail not shown here. Equal entries are not always repeated.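 Assay format: 96-well plates, 48-hour exposure. GI50 marks 50% less growth. TGI denotes the concentration required for complete inhibition of growth.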

What all share (experiment): growth of human tumour cells (NCI), 48 h
For test [1], the system named is MDA-MB-231 breast.
Test [2] has as its system SF-295 CNS.
For test [3], the system named is SK-MEL-2 melanoma.
For test [4], the system named is OVCAR-5 ovarian.
For test [5], the system named is SW-620 colon.
Test [6] deals with NCI-H522 lung.
In test [7] the test system is DU-145 prostate.
For test [8], the system named is 786-0 renal.
For test [9], the system named is MOLT-4 leukemia.
In test [10] the test system is BT-549 breast.

As for `CNc1cc2oc(=O)cc(C)c2cc1C`, the TGI in test [1], in test [2], in [3], in [4], in [5] and in [6] was above 100 µM each time. Also, the TGI in test [7], in test [8], in test [9] and in test [10] was above 100 µM in each case.
As for `CSC[C@H](NC(=O)COc1cccc2cnccc12)C(=O)NC(Cc1ccccc1)C(O)C(=O)N1CSC[C@H]1C(=O)NC(C)(C)C` (stereo partly specified), the TGI in test [1], in [2], in test [3], in test [4], in [5] and in test [6] was above 100 µM each time. The TGI in test [7], in [8], in [9] and in test [10] was above 100 µM each time.
On to `C=C(CN(C)Cc1ccccc1)c1ccc(NC(=O)c2ccc(C(=C)CN(C)Cc3ccccc3)cc2)cc1`, for which the GI50 in test [1] is 54.9 µM; in test [2] it was 71.4 µM; in test [3] it was 60.9 µM; in [4], above 100 µM; in test [5] it was 96.7 µM; in test [6], above 100 µM. Besides, the GI50 in [7] is 71.6 µM; in [8], 25.6 µM; in test [9], 49.8 µM; in [10] it was above 100 µM. Also, the TGI in test [1], in test [2], in test [3], in test [4], in test [5] and in [6] was above 100 µM each time. Moreover, the TGI in test [7] was above 100 µM; in [8] it was 65.4 µM; in test [9], above 100 µM; in test [10], above 100 µM.
Turning to `O=[N+]([O-])c1cccnc1N=Nc1c(O)[nH]c2ccccc12`, the TGI was above 100 µM in [1]; 38.7 µM in test [2]; 53.4 µM in test [3]; 49.2 µM in test [4]; 87.8 µM in test [5]; 69.3 µM in test [6]. Moreover, the TGI in test [7] is 29.6 µM; in test [8], 52 µM; in [9], above 100 µM; in test [10] it was 25.4 µM.
Take `CN(Cc1cnc2nc(N)nc(N)c2n1)c1ccc(C(=O)N[C@@H](CCS(=O)(=O)O)C(=O)O)cc1`: the TGI in test [1], in test [2], in test [3], in test [5], in [6] and in test [7] was above 100 µM throughout. In addition, the TGI in [8], in test [9] and in test [10] was above 100 µM each time. For the same compound, the GI50 in test [7] was 1.31 µM; in [8], 0.0955 µM.
For `COc1ccc(Cl)cc1NC(=O)c1ccc(NC2=C(Cl)C(=O)N(Cc3ccccc3)C2=O)cc1`, the GI50 was 26.2 µM in test [1]; 36.2 µM in test [2]; above 100 µM in [4]; 93 µM in test [5]; 17.5 µM in test [6]; above 100 µM in test [7]. Moreover, the GI50 is above 100 µM in test [8], 1.43 µM in [9] and 28.7 µM in [10]. In addition, the TGI in test [1], in [2], in test [4], in test [5], in test [6] and in test [7] was above 100 µM in each case. The values for the TGI in test [8], in [9] and in [10] were above 100 µM, 13.4 µM and above 100 µM, respectively.
In the case of `O=C(Nc1nc(-c2c[nH]c3ccccc23)cs1)c1n[nH]c(=O)c2ccccc12`, the GI50 was 25.7 µM in test [1]; 1.55 µM in [2]; 13.4 µM in test [3]; 73 µM in test [4]; 1.91 µM in test [5]; 3.26 µM in test [6]. For the same compound, the GI50 in [7] is 3.33 µM; in [8] it was 1.48 µM; in test [9], 0.792 µM; in test [10] it was 3.89 µM. The TGI was above 100 µM in test [1]; 21.9 µM in [2]; above 100 µM in test [3]; above 100 µM in test [4]; above 100 µM in test [5]; above 58.2 µM in [6]. Further, the TGI in [7] was above 31 µM; in [8], above 47.5 µM; in [9] it was above 35.4 µM; in [10] it was above 81.2 µM.
As to `COc1ccc(-c2c(C#N)c(N3CCOCC3)nc3[nH]c(=S)[nH]c(=S)c23)cc1OC`, the GI50 is 13.9 µM in [1]; 40.1 µM in test [2]; above 100 µM in [3]; above 100 µM in [4]; 49.1 µM in [5]; above 100 µM in test [6]. Moreover, the GI50 in test [7] was 58.7 µM; in [8], 30.7 µM; in [9] it was 39.6 µM; in test [10], 32.2 µM. The TGI in test [1] is 77.1 µM; in test [2], above 100 µM; in [3], above 100 µM; in test [4] it was above 100 µM; in test [5], above 100 µM; in test [6] it was above 100 µM. Also, the TGI in test [7], in [8], in [9] and in [10] was above 100 µM each time.
Regarding `COc1cc2c3c(n(C)c(=O)c2cc1OC)-c1cc2c(cc1C3=O)OCO2`, the TGI in [1] is above 100 µM; in test [2] it was above 61.3 µM; in test [3], above 72.2 µM; in [4], above 100 µM; in [5], above 100 µM; in test [6] it was 34.8 µM. The TGI in test [7] is above 100 µM; in test [8] it was above 77.7 µM; in test [9], 54.7 µM; in [10] it was above 100 µM.
Take `COc1cc2c(cc1OCCCN1CCN(CCCOc3cc4c(cc3OC)C(=O)N3CC(F)(F)C[C@H]3C=N4)CC1)N=C[C@@H]1CC(F)(F)CN1C2=O`: the GI50 in test [1] was 4.29 µM; in [3] it was 10.3 µM; in [4] it was 3.83 µM; in test [5] it was 2.61 µM; in [6] it was 1.14 µM; in test [7], 3.63 µM. The values for the GI50 in [8], in test [9] and in test [10] were 3.17 µM, 2.02 µM and 1.95 µM, respectively. Moreover, the TGI in test [1] is 17.6 µM; in [3] it was 23.1 µM; in test [4] it was 11.4 µM; in test [5], 12.5 µM; in test [6], 3.86 µM; in test [7] it was 13.3 µM. The TGI in [8] stood at 10.8 µM; in test [9], 8.37 µM; in test [10] it was 5.36 µM.
As for `CC[C@]1(O)C[C@H]2CN(CCc3c([nH]c4ccccc34)C(C(=O)OC)(c3cc4c(cc3OC)N(C)[C@H]3[C@@](O)(C(=O)OC)[C@H](OC(C)=O)[C@]5(CC)[C@@H]6C[C@@H]6CN6CC[C@]43[C@@H]65)C2)C1` (stereo partly specified), the GI50 in [1] was 0.0075 µM; in [2] it was 0.00233 µM; in test [3], below 0.00143 µM; in [4], 0.00974 µM; in [5] it was 0.00564 µM; in test [6], below 0.00143 µM. The GI50 in [7] was below 0.00143 µM; in test [8] it was 0.0068 µM; in test [9] it was 0.0074 µM; in [10], 0.0156 µM. Further, the TGI was 0.239 µM in test [1]; 0.393 µM in test [2]; 0.143 µM in test [3]; above 6.67 µM in [4]; above 14.3 µM in [5]; 0.00528 µM in test [6]. For the same compound, the TGI is above 14.3 µM in test [7], 5 µM in test [8], 5.43 µM in test [9] and 0.683 µM in [10].
Consider `O=C(Nc1ncc(Cc2cccc(C(F)(F)F)c2)s1)c1ccc2c(c1)OCCO2`, for which the GI50 in test [1] was 0.445 µM; in test [2], 0.244 µM; in test [3], 0.943 µM; in [4], 0.617 µM; in test [5], 0.352 µM; in test [6], 0.196 µM. Also, the GI50 in [7] is 0.35 µM; in [8], 0.576 µM; in test [9] it was 0.67 µM; in [10], 0.449 µM. Moreover, the TGI in [1] is 29.7 µM; in [2] it was 1.84 µM; in [3], above 48.6 µM; in test [4], above 100 µM; in test [5] it was above 100 µM; in [7] it was 14.8 µM. Moreover, the TGI in [8], in test [9] and in test [10] was above 100 µM in each case.
As to `COc1ccc(/C=C\c2cc(OC)c(OC)c(OC)c2)cc1OCC(=O)O`, the TGI in [1] is above 92.7 µM; in [2], 35.8 µM; in test [3] it was above 53.9 µM; in test [4], above 100 µM; in test [5] it was above 100 µM; in test [6], 9.01 µM. For the same compound, the TGI in [7] is 47.2 µM; in [8] it was above 100 µM; in test [9], above 100 µM; in test [10], above 100 µM.
As for `CC(C)=CCC1=C(O)c2ccccc2C(=O)C1=O`, the GI50 is 21 µM in test [1]; > 100 µM and 22.7 µM in [2]; 68.7 µM in test [3]; 56.2 µM in test [4]; > 100 µM and 34.6 µM and 22.9 µM in [5]; > 100 µM and 19.7 µM and 20.6 µM in [6]. In addition, the GI50 in [7] was 23.5 µM; in test [8] it was > 100 µM and 21.6 µM and 26.1 µM. For the same compound, the TGI in test [1] was above 100 µM; in [2], above 100 µM; in [3], above 88.3 µM; in [4], above 100 µM; in [5], above 100 µM; in [6], above 100 µM. Besides, the TGI in test [7], in [8] and in test [10] was above 100 µM in each case.
`N#CC(I)CS(=O)(=O)c1ccccc1` (stereo unspecified): the GI50 in [1] was 17.3 µM; in [2], above 100 µM; in test [3], 17.6 µM; in test [4] it was 18.9 µM; in test [5] it was 1.78 µM; in test [6], 1.34 µM. Besides, the GI50 in test [7] is 17.2 µM; in test [8], 19.1 µM; in test [10], 18.8 µM. The TGI is 33.9 µM in test [1]; above 100 µM in test [2]; 33.2 µM in [3]; 33.6 µM in test [4]; 3.49 µM in test [5]; 2.78 µM in test [6]. Further, the TGI in test [7] is 31.3 µM; in test [8] it was 33.2 µM; in [10], 32.9 µM.
As for `Cc1nc2sccn2c1-c1nc2sccn2c1/C=C1/C(=O)Nc2ccccc21`, the GI50 is 4.85 µM in [1]; 2.12 µM in test [2]; 2.68 µM in test [3]; 12.9 µM in test [4]; 2.32 µM in [5]; 2.72 µM in test [6]. Further, the GI50 is 4.64 µM in test [7], 1.79 µM in test [8] and 1.85 µM in test [10]. In addition, the TGI in test [1] was 23.9 µM; in test [2] it was 8.09 µM; in test [3], 36.8 µM; in test [4] it was above 100 µM; in test [5], 7.61 µM; in [6], 11.1 µM. Also, the TGI in [7] was 21.5 µM; in [8] it was 24.7 µM; in test [10] it was 7.27 µM.
For `COc1cccc2c1O/C(=C\c1ccc([N+](=O)[O-])s1)C2=O`, the GI50 in test [1] is 1.25 µM; in test [2], above 90.5 µM; in test [3] it was 1.76 µM; in test [4] it was above 100 µM; in test [5] it was 0.46 µM; in test [6] it was 0.241 µM. The GI50 in test [7] is above 23.9 µM; in [8] it was above 20.6 µM; in test [10], 1.68 µM. In addition, the TGI was 2.92 µM in test [1]; above 100 µM in test [2]; 3.92 µM in test [3]; above 100 µM in [4]; 1.75 µM in [5]; 0.766 µM in test [6]. For the same compound, the TGI was above 100 µM in test [7], above 100 µM in test [8] and 3.27 µM in test [10].
As for `CCCCCCCCSC1=C(Cl)C(=O)C(OC)=C(OC)C1=O`, the TGI is 29 µM in test [1]; 47.4 µM in test [2]; 30.9 µM in test [3]; 21.1 µM in test [4]; 84 µM in test [5]; 14.4 µM in test [6]. The TGI in test [7] is 40.5 µM; in test [8], 30 µM; in test [10] it was 31.4 µM.

Values taken from PubChem BioAssay (NCI).
